What was measured:
[1] = molecular target: Sodium-dependent serotonin transporter (Homo sapiens, UniProt P31645); assay type: cell-based, JAR
Description: Inhibition of serotonin uptake at human SERT expressed in JAR cells

[2] = molecular target: Sodium-dependent dopamine transporter (Homo sapiens) (UniProt Q01959); assay: Displacement of [3H]WIN-35428 from human recombinant DAT expressed in CHO cells at 1 uM; assay type: cell-based
[3] = molecular target: Sodium-dependent noradrenaline transporter (Homo sapiens, UniProt P23975)
Sequence of Sodium-dependent noradrenaline transporter (P23975 whole entry): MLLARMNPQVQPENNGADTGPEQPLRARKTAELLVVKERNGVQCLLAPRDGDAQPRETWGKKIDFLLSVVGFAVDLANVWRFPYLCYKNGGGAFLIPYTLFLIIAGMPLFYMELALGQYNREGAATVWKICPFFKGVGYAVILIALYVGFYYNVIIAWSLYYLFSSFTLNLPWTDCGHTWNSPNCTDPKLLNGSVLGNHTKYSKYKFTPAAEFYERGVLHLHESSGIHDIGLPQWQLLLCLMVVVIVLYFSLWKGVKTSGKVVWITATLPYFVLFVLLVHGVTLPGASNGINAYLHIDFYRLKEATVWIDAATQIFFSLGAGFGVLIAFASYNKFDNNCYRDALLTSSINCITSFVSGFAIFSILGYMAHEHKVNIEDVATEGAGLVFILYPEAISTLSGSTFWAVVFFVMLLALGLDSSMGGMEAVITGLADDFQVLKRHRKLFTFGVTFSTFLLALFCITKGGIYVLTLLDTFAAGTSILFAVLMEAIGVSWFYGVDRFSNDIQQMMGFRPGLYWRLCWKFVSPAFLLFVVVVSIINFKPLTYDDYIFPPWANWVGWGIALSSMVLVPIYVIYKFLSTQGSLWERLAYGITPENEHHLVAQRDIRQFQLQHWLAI
Description: Inhibition of norepinephrine uptake at human NET expressed in MDCK cells

Sequence of Sodium-dependent serotonin transporter (P31645 whole entry): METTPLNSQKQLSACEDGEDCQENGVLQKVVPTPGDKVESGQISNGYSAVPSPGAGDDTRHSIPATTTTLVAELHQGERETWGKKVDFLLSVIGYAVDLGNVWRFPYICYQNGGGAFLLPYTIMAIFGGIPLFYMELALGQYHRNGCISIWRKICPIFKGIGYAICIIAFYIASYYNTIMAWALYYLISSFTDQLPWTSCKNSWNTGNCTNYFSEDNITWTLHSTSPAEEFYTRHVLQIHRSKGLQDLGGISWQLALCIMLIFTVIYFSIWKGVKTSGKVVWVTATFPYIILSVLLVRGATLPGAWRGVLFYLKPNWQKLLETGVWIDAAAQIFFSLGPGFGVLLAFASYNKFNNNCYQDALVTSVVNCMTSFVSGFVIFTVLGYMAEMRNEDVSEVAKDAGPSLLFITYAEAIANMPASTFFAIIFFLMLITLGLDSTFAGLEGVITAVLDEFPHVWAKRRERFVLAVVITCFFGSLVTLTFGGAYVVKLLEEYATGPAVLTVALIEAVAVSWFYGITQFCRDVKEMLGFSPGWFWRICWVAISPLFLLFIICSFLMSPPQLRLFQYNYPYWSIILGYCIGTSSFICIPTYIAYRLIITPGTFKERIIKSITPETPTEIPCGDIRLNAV
Sequence of Sodium-dependent dopamine transporter (Homo sapiens) (Q01959 whole entry): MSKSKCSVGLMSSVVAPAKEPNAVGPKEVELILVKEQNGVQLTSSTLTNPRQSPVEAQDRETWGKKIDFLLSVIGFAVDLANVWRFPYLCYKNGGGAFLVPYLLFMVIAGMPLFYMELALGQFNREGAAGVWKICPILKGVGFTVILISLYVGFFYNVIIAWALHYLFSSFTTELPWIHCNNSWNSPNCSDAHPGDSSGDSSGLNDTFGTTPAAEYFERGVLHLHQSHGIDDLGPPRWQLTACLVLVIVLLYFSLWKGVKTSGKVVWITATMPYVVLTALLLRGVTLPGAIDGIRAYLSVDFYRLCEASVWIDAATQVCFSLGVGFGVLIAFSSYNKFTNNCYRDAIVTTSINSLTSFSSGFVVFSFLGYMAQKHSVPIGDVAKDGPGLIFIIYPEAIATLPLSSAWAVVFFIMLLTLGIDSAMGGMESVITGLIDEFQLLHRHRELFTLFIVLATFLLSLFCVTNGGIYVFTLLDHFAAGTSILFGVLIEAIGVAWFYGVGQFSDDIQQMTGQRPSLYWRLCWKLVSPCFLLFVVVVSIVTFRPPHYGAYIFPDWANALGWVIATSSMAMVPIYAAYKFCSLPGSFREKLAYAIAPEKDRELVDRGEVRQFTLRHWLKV

IC50 [1] [nM]	Activity [2] [%]	IC50 [3] [nM]	Compound
1950	3	> 3000	CNCC[C@@H](c1ccccc1)N1C(=O)C(C)(C)c2ccccc21
277			CNCCC(Oc1ccccc1OC)c1ccccc1 (configuration not stated) [NISOXETINE]
> 3000	0	19	CNCC[C@H](c1cc(F)cc(Cl)c1)N1C(=O)C(C)(C)c2cccc(F)c21
1750	0	> 3000	CNCC[C@@H](c1ccccc1)N1C(=O)C2(CCCCC2)c2ccccc21
327	44	47	CNCCC(c1ccccc1)n1ccc2ccccc21 (configuration not stated)
1350	0	7	CNCC[C@H](c1ccccc1)N1C(=O)C(C)(C)c2ccccc21
290	10	7	CNCC[C@H](c1cccc(Cl)c1)N1C(=O)C(C)(C)c2cccc(F)c21
> 3000	20	26	CNCC[C@H](c1cccc(F)c1)N1C(=O)C2(CCCCC2)c2ccccc21
330	0	6	CNCC[C@H](c1cc(F)cc(F)c1)N1C(=O)C(C)(C)c2cccc(F)c21
> 3000	3	175	CNCC[C@H](c1ccccc1)N1C(=O)C(C)(C)c2cccc(F)c21
1150	1	> 3000	CNCC[C@@H](c1cccc(F)c1)N1C(=O)C2(CCCCC2)c2ccccc21
> 3000	26	53	CNCC[C@H](c1ccccc1)N1C(=O)C2(CCCCC2)c2ccccc21
2550	7	14	CNCC[C@H](c1cccc(F)c1)N1C(=O)C(C)(C)c2cccc(F)c21

Reference: ChEMBL document CHEMBL1144192, “Synthesis and activity of 1-(3-amino-1-phenylpropyl)indolin-2-ones: a new class of selective norepinephrine reuptake inhibitors” (Bioorg Med Chem Lett, 2008)
